Source: PubChem BioAssay AID2060603 (Molecular Pharmacology Branch, DTP, NCI, 2025)
Several values for one entry are separate records, joined by “and”; a condition that tells them apart may be missing. Identical values can stand only once.

Test system: 422866-222-R5-J1-PDC spheroid viability
Test: Anticancer human tumor 422866-222-R5-J1-PDC patient-derived pancreatic adenocarcinoma cell line growth inhibition [CLK]
Conditions: spheroids with HUVEC and MSC; for viability, T/C: stronger effect = lower value; active = viability on the fitted dose curve at most 10% of control; inactive = the rest
Procedure, shortened: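 Multi-cell-type spheroids combined patient-derived tumor cells with HUVEC endothelial cells and human mesenchymal stem cells. Paired agents were dosed in half-log steps down from about clinical Cmax, or from 10 microM where Cmax was unknown.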

[1] = curve of first compound, second compound 0.0316 µM
[2] = curve of first compound, second compound 0.1 µM
[3] = curve of first compound, second compound 0.316 µM
[4] = curve of first compound, second compound 1 µM
[5] = curve of first compound, second compound 3.16 µM
[6] = curve of first compound, second compound 10 µM
[7] = second compound 0.0316 µM, first compound 0.0316 µM
[8] = second compound 0.0316 µM, first compound 0.1 µM
[9] = second compound 0.0316 µM, first compound 0.316 µM
[10] = second compound 0.0316 µM, first compound 1 µM
[11] = second compound 0.0316 µM, first compound 3.16 µM
[12] = second compound 0.0316 µM, first compound 10 µM
[13] = second compound 0.1 µM, first compound 0.0316 µM
[14] = second compound 0.1 µM, first compound 0.1 µM
[15] = second compound 0.1 µM, first compound 0.316 µM
[16] = second compound 0.1 µM, first compound 1 µM
[17] = second compound 0.1 µM, first compound 3.16 µM
[18] = second compound 0.1 µM, first compound 10 µM
[19] = second compound 0.316 µM, first compound 0.0316 µM
[20] = second compound 0.316 µM, first compound 0.1 µM
[21] = second compound 0.316 µM, first compound 0.316 µM
[22] = second compound 0.316 µM, first compound 1 µM
[23] = second compound 0.316 µM, first compound 3.16 µM
[24] = second compound 0.316 µM, first compound 10 µM
[25] = second compound 1 µM, first compound 0.0316 µM
[26] = second compound 1 µM, first compound 0.1 µM
[27] = second compound 1 µM, first compound 0.316 µM
[28] = second compound 1 µM, first compound 1 µM
[29] = second compound 1 µM, first compound 3.16 µM
[30] = second compound 1 µM, first compound 10 µM
[31] = second compound 3.16 µM, first compound 0.0316 µM
[32] = second compound 3.16 µM, first compound 0.1 µM
[33] = second compound 3.16 µM, first compound 0.316 µM
[34] = second compound 3.16 µM, first compound 1 µM
[35] = second compound 3.16 µM, first compound 3.16 µM
[36] = second compound 3.16 µM, first compound 10 µM
[37] = second compound 10 µM, first compound 0.0316 µM
[38] = second compound 10 µM, first compound 0.1 µM
[39] = second compound 10 µM, first compound 0.316 µM
[40] = second compound 10 µM, first compound 1 µM
[41] = second compound 10 µM, first compound 3.16 µM
[42] = second compound 10 µM, first compound 10 µM
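Also: spheroids exposed to agents for seven days before readout.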

C=C(F)C(=O)N1CCN(c2nc(OCC3CCCN3C)nc3c2CCN(c2cccc4cccc(Cl)c24)C3)CC1CC#N (stereo not drawn) + CN1CCN(c2cc(C(=O)Nc3cc4cc(-c5cnn(C)c5)ccc4cn3)ccn2)CC1
active: viability, T/C [12] 2.17% | viability, T/C [18] 1.79% | viability, T/C [24] 0.13% | viability, T/C [29] 10.2% | viability, T/C [30] 0.1% | viability, T/C [31] 4.24% | viability, T/C [32] 4.94% | viability, T/C [33] 4.57% | viability, T/C [34] 3.86% | viability, T/C [35] 4.64% | viability, T/C [36] 0.71% | viability, T/C [37] 3.87% | viability, T/C [38] 0.7% | viability, T/C [39] 0.93% | viability, T/C [40] 0.72% | viability, T/C [41] 0.46% | viability, T/C [42] 0.15%
inactive: viability, T/C [7] 40.6% | viability, T/C [8] 29.3% | viability, T/C [9] 27% | viability, T/C [10] 26.2% | viability, T/C [11] 15.9% | viability, T/C [13] 45.5% | viability, T/C [14] 33.9% | viability, T/C [15] 29.3% | viability, T/C [16] 25.1% | viability, T/C [17] 19.9% | viability, T/C [19] 42.4% | viability, T/C [20] 30.6% | viability, T/C [21] 27.9% | viability, T/C [22] 20.1% | viability, T/C [23] 20% | viability, T/C [25] 19.9% | viability, T/C [26] 18.5% | viability, T/C [27] 18.6% | viability, T/C [28] 16.4%
< 31.6 nM: IC50 [1] | IC50 [2] | IC50 [3] | IC50 [4] | IC50 [5] | IC50 [6]

COc1ccc([C@@H](O)c2cc(-c3ncnc4cc(N5CCOCC5)ccc34)c(F)cc2Cl)nn1
2500 nM and 1710 nM: IC50 (curve of compound)
inactive: viability, T/C (compound 0.0316 µM) 88.1% and 94.1% | viability, T/C (compound 0.1 µM) 105% and 99% | viability, T/C (compound 0.316 µM) 80.7% and 76.8% | viability, T/C (compound 1 µM) 66.4% and 61.3% | viability, T/C (compound 3.16 µM) 47.2% and 38.6% | viability, T/C (compound 10 µM) 35.5% and 29.1%

COc1cccc2c1C(=O)c1c(O)c3c(c(O)c1C2=O)CC(O)(C(=O)CO)CC3OC1CC(N)C(O)C(C)O1 (stereo not drawn) + CN1CCN(c2cc(C(=O)Nc3cc4cc(-c5cnn(C)c5)ccc4cn3)ccn2)CC1
active: viability, T/C [31] 8.41% | viability, T/C [32] 7.95% | viability, T/C [37] 1.49% | viability, T/C [38] 1.52% | viability, T/C [39] 2.85% | viability, T/C [40] 3.41% | viability, T/C [41] 10.8% | viability, T/C [42] 13.8%
174 nM: IC50 [2]
109 nM: IC50 [1]
inactive: viability, T/C [7] 73.1% | viability, T/C [8] 50.2% | viability, T/C [9] 40.9% | viability, T/C [10] 28.2% | viability, T/C [11] 31% | viability, T/C [12] 36% | viability, T/C [13] 74% | viability, T/C [14] 59.4% | viability, T/C [15] 38.5% | viability, T/C [16] 34.3% | viability, T/C [17] 39.9% | viability, T/C [18] 47.1% | viability, T/C [19] 73% | viability, T/C [20] 67.4% | viability, T/C [21] 42.1% | viability, T/C [22] 35.8% | viability, T/C [23] 30.7% | viability, T/C [24] 46.5% | viability, T/C [25] 19.8% | viability, T/C [26] 16.7% | viability, T/C [27] 15.3% | viability, T/C [28] 20.3% | viability, T/C [29] 38% | viability, T/C [30] 54.5% | viability, T/C [33] 11.9% | viability, T/C [34] 22.1% | viability, T/C [35] 33.8% | viability, T/C [36] 51%
220 nM: IC50 [3]
< 31.6 nM: IC50 [4] | IC50 [5] | IC50 [6]

COc1ccc([C@@H](O)c2cc(-c3ncnc4cc(N5CCOCC5)ccc34)c(F)cc2Cl)nn1 + CN1CCN(c2cc(C(=O)Nc3cc4cc(-c5cnn(C)c5)ccc4cn3)ccn2)CC1
7110 nM: IC50 [3]
< 31.6 nM: IC50 [4] | IC50 [5] | IC50 [6]
active: viability, T/C [37] 1.27% | viability, T/C [38] 1.38% | viability, T/C [39] 1.7% | viability, T/C [40] 2.13% | viability, T/C [41] 3.04% | viability, T/C [42] 2.69%
5480 nM: IC50 [1]
inactive: viability, T/C [7] 116% | viability, T/C [8] 96.8% | viability, T/C [9] 88.8% | viability, T/C [10] 77.4% | viability, T/C [11] 59% | viability, T/C [12] 39.5% | viability, T/C [13] 114% | viability, T/C [14] 98.8% | viability, T/C [15] 94.3% | viability, T/C [16] 73.6% | viability, T/C [17] 56% | viability, T/C [18] 40.4% | viability, T/C [19] 98.7% | viability, T/C [20] 87.8% | viability, T/C [21] 81.4% | viability, T/C [22] 77.7% | viability, T/C [23] 52.9% | viability, T/C [24] 48% | viability, T/C [25] 18.2% | viability, T/C [26] 18.5% | viability, T/C [27] 22.9% | viability, T/C [28] 16.7% | viability, T/C [29] 20.9% | viability, T/C [30] 19.1% | viability, T/C [31] 7.87% | viability, T/C [32] 8.87% | viability, T/C [33] 9.25% | viability, T/C [34] 8.71% | viability, T/C [35] 11.4% | viability, T/C [36] 14.6%
5040 nM: IC50 [2]
